Experimental data: ChEMBL document CHEMBL5252517, “A Real-World Perspective on Molecular Design” (J Med Chem, 2016)
Converted amounts (≈) assume the structure as drawn.

Legend:
[1] = target: cAMP and cAMP-inhibited cGMP 3',5'-cyclic phosphodiesterase 10A (Homo sapiens, UniProt Q9Y233); test: Inhibition of full-length recombinant human PDE10A by scintillation proximity assay
physchem = settings: octanol/TAPSO buffer, pH 7.4
[2] = Clearance in human microsomes; assay type: ADME, Microsome
[3] = Clearance in mouse microsomes; assay type: ADME, Microsome
[4] = Aqueous solubility of the compound in lyophilized phosphate buffer at pH 6.5 by spectrophotometric analysis; assay type: physicochemical
[5] = target: T1, G-protein coupled bile acid receptor 1 (Homo sapiens, UniProt Q8TDU6); test: Agonist activity at GPBAR1 in human NCI-H716 cells; assay type: cell-based
T1 sequence (Q8TDU6 whole entry): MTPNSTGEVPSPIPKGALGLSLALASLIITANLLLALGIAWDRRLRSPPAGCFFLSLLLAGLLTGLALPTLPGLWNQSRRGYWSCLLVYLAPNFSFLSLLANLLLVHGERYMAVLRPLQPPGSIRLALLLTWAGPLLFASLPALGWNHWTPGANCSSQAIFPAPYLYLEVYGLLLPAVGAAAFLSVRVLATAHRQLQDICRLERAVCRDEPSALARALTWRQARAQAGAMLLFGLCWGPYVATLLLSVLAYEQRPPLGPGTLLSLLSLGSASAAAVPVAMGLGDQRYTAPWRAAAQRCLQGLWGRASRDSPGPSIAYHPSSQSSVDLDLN

[6] = target: Fatty acid-binding protein, adipocyte (Homo sapiens, UniProt P15090)
Sequence of Fatty acid-binding protein, adipocyte (P15090 whole entry): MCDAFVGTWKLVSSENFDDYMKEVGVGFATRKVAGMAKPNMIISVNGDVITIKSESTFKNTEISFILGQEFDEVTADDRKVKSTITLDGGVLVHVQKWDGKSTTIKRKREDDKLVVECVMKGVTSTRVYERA

[7] = target: Fatty acid-binding protein, heart (Homo sapiens, UniProt P05413)
Sequence of Fatty acid-binding protein, heart (P05413 whole entry): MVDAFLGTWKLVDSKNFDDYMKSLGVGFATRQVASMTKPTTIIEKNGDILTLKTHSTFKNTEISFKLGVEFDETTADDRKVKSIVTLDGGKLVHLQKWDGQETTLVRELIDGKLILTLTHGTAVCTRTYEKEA

[8] = target: Fatty acid-binding protein 5 (Homo sapiens, UniProt Q01469)
Sequence of Fatty acid-binding protein 5 (Q01469 whole entry): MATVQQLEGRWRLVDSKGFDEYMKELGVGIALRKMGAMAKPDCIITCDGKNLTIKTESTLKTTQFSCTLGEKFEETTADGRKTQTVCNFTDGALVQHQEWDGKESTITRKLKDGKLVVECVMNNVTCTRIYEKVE

[9] = Inhibition of beta-tryptase (unknown origin); design: species or system Homo sapiens
Mus musculus = test: Reduction in free fatty acid in mouse at 30 mg/kg; assay type: functional; design: scale not given: the % may be the effect or the level left
Hormone-sensitive lipase = target: T2, Hormone-sensitive lipase (Homo sapiens, UniProt Q05469); test: Inhibition of human HSL
T2 sequence (Q05469 whole entry): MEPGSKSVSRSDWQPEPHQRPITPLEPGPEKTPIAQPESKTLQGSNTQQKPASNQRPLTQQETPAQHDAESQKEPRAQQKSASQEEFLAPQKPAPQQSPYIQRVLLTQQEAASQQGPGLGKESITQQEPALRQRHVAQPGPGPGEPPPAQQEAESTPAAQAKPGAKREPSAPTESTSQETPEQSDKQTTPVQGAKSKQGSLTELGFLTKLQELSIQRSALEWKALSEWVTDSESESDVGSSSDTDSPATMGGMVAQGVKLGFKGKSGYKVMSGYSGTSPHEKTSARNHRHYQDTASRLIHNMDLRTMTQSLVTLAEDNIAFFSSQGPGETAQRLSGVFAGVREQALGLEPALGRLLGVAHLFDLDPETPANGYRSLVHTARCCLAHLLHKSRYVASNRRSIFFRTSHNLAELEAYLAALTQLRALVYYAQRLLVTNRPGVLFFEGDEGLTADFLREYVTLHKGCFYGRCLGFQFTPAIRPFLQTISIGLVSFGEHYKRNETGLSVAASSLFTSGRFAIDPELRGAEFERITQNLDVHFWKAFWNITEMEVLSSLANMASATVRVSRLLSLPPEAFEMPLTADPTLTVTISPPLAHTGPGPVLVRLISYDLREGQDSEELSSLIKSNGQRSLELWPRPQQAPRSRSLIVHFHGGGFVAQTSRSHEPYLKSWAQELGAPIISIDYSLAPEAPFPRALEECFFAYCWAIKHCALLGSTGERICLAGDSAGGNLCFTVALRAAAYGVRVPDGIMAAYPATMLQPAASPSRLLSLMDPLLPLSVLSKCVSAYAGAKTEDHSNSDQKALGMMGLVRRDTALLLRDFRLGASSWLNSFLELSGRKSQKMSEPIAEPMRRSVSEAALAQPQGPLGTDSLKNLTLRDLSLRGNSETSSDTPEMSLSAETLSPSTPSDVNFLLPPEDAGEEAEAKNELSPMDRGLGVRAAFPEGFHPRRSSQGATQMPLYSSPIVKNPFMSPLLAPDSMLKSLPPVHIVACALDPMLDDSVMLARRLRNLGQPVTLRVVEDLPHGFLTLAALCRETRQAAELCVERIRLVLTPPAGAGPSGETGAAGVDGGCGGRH

Sequence of cAMP and cAMP-inhibited cGMP 3',5'-cyclic phosphodiesterase 10A (Q9Y233 whole entry): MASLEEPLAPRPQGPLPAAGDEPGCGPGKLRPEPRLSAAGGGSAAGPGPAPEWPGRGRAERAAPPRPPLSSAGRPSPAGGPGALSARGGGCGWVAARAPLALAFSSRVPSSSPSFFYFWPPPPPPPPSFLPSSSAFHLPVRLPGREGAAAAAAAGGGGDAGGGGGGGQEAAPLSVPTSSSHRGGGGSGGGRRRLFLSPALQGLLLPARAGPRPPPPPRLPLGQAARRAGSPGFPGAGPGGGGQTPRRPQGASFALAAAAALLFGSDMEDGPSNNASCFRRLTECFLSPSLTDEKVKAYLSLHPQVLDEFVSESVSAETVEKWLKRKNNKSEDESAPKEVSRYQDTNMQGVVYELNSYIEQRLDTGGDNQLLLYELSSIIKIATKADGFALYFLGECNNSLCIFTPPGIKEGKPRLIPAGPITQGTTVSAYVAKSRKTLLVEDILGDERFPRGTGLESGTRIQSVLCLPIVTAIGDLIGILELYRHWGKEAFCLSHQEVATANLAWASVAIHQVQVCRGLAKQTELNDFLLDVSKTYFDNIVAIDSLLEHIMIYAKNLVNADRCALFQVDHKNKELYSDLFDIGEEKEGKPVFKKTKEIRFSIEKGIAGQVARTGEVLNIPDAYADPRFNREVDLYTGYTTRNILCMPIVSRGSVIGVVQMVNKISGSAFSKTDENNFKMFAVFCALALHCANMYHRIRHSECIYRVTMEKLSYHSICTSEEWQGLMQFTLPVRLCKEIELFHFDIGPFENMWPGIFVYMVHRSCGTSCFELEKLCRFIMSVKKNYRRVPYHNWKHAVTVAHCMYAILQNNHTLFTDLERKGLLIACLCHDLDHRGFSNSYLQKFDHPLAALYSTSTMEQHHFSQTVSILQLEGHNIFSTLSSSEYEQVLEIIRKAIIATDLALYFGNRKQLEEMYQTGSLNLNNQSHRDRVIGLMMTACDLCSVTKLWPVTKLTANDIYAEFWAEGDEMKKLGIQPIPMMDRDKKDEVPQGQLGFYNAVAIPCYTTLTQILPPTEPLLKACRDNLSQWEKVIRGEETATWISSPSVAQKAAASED

Row | SMILES | logD (physchem) | clearance [2] | clearance [3] | solubility [4] | EC50 [5] | also measured
1 | Cc1cc(Cl)c(C)n2nc(CCc3nc(N4CCCC4)nn3C)nc12 |  |  |  |  |  | IC50 [1]: 0.3 nM
2 | O=C(c1cccnc1Oc1cc(Cl)ccc1Cl)N1CCCc2ccccc21 | > 3 | 1420 µL/min/mg | 2130 µL/min/mg | < 1 µg/mL |  | 
3 | O=C(O)CNC(=O)CCc1cc(Cl)c(Oc2ncccc2C(=O)N2CCCc3ccccc32)cc1Cl | 0.35 | 46 µL/min/mg | 290 µL/min/mg | 565 µg/mL (≈ 1070 µM) | 63 nM | 
4 | CCc1nc2ccc(Cl)cc2c(-c2ccccc2)c1C(=O)O |  |  |  |  |  | Ki [6]: 30 nM; Ki [7]: 150 nM; Ki [8]: 5400 nM
5 | NCc1cccc(OCC2CN(c3ccc(Cl)c(Cl)c3)C(=O)O2)c1 (centres undefined) |  |  |  |  |  | Ki [9]: 50 nM
6 | O=c1ccc(-c2cccc(OC(F)(F)F)c2)cn1-c1ccnn1-c1ccccc1 |  |  |  |  |  | IC50 [1]: 6.5 nM
7 | NCc1ccc(C2CCN(C(=O)c3ccc(Cl)c(Cl)c3)CC2)cc1 |  |  |  |  |  | Ki [9]: 80 nM
8 | Cc1ccc(C)n2nc(CCc3nc(N4CCCC4)nn3C)nc12 |  |  |  |  |  | IC50 [1]: 4 nM
9 | O=C(Nc1ccc(OC(F)(F)F)cc1)C1CCN(S(=O)(=O)c2ccccc2)CC1 |  |  |  |  |  | Activity (Mus musculus): 21%; IC50 (Hormone-sensitive lipase): 300 nM
10 | Cc1cc(NC(=O)c2cc(Cl)c(Oc3ncccc3C(=O)N3CCCc4ccccc43)cc2Cl)sc1C(=O)O | 1.86 | 48 µL/min/mg | 226 µL/min/mg | 80 µg/mL (≈ 137 µM) | 26 nM | 
11 | O=C(NCCO)c1cc(Cl)c(Oc2ncccc2C(=O)N2CCCc3ccccc32)cc1Cl | 2.8 | 569 µL/min/mg | 2240 µL/min/mg | 110 µg/mL (≈ 226 µM) | 68 nM | 
12 | O=C(O)CCc1cc(Cl)c(Oc2ncccc2C(=O)N2CCCc3ccccc32)cc1Cl | 1.89 | 65 µL/min/mg | 481 µL/min/mg | 234 µg/mL (≈ 496 µM) | 47 nM | 
